Measured values published in patent US10226474B2, “Methods and compositions for treatment of non-alcoholic steatohepatitis” (Temple University—Of The Commonwealth System of Higher …, priority 2017, dated 2019).
Like-named read-outs stand apart in the source and are kept apart here.

Legend:
[1] = tested on: Nonalcoholic Steatohepatitis patients; conditions: PIVENS histologic response criteria; 0.025 considered statistically significant; cited from earlier work
[2] = tested on: NASH patients; conditions: oral dose of 150 mg, one year, cited from earlier work
[3] = tested on: NASH patients; conditions: obeticholic acid treatment; cited from earlier work
[4] = tested on: DIAMOND™ mouse model of NASH; test: Efficacy of fluasterone in the DIAMOND mouse model of NASH (Western Diet Sugar Water); assay type: in vivo; conditions: for mice progressed to measurable fibrosis by NASH CRN score: 24 week WDSW group 5/10
Protocol: DIAMOND™ (Diet Induced Animal Model of Non-alcoholic fatty liver Disease) mouse model is a mouse model of NASH. This mouse model was used to assess the effect of fluasterone. The drug formulation (subcutaneous injectable formulation) contained fluasterone as an active pharmaceutical ingredient in a vehicle. The vehicle contained RO (reverse osmosis) water mixed with sterile saline solution and 5% Tween-80. The drug formulation was prepared as follows: micronized powder of fluasterone (submicron range particles of fluasterone) was suspended in the vehicle and vortexed to evenly suspend. Two doses of fluasterone were used and compared to vehicle controls and positive and negative natural history controls to determine the impact on weight gain, fatty liver, steatohepatitis, and the progression to fibrosis. The two different doses of fluasterone used were (i) a low dose (LD) fluasterone (5 mg fluasterone/kg body weight) for 8 weeks and (ii) a high dose (HD) fluasterone (20 mg fluasterone/kg body weight) for 8 weeks. Vehicle Control was sterile saline with 5% Tween-80. The other details are as follows: (1) Animal Species: DIAMOND™ Mice (Male C57BL/6J(B6)-129s1/SvImJ(S129)). (2) Positive Control and Treatment Groups' food and drinking water: (a) Food—Western Diet ENVIGO Harlan/Teklad 42% Adjusted Calories from Fat (TD. 88137), and (b) RO Water—Sugar Water—D-fructose Alfa Aesar #A17718 and D-glucose Water—Fisher Scientific #D19-212; Recipe=231 g Fructose+189 g Glucose+750 ml RO (reverse osmosis) water Diluted into 9 L RO Water. This diet is referred to herein as Western Diet Sugar Water (WDSW). (3) Negative Control Group's food and drinking water: (a) Normal Mouse Chow Diet—ENVIGO Harlan/Teklad Normal Rodent Chow (TD 7012 Teklad LM-485), and (b) RO water. This diet is referred to herein interchangeably as Normal Diet Normal Water (NDNW) and Normal Chow Normal Water (NCNW).
Eight-two (82) DIAMOND™ mice were put on the special diet WDSW (high fat diet (Harlan/Teklad 42% fat) and sweetened water (D-Fructose and D-Glucose)) at time point 0 (t=0) (at eight weeks of age). Mice were weighed weekly. Of these, 10 mice were injected subcutaneously with fluasterone at concentration 5 mg/kg and 10 mice were injected subcutaneously with fluasterone at concentration 20 mg/kg, and 5 mice in a staggered group were injected with vehicle starting at 16 weeks on diet (t=16) until 24 weeks (t=24), as described in “Subcutaneous Injection.” For baseline controls, 8 male DIAMOND™ mice were placed on the WDSW at eight weeks of age and given no treatment; these were the positive natural history controls. A second group of 8 male DIAMOND™ mice were continued on the NCNW/NDNW at eight (8) weeks and these were the negative natural history control group. The mice were weighed weekly. At 16, 20, and 24 weeks on diet, fasting insulin was measured in serum from tail vein nick. HOMA-IR scores were calculated. 8 mice on WDSW and 8 mice NDNW were sacrificed at 16 weeks (t=16) on diet as baseline positive and negative controls. 8 mice on WDSW and 8 mice NDNW were sacrificed at 24 weeks (t=24). Carbon dioxide was used as an anesthetic and a cardiac puncture was performed for exsanguination. Cervical dislocation was performed as a secondary means of euthanasia.
As discussed above, the drug formulation used in this experiment contained fluasterone as an active pharmaceutical ingredient in a vehicle. The vehicle contained RO water mixed with sterile saline solution and 5% Tween-80.
Body Weights: Mice were weighed weekly and the weights determined the amount of test compound administered.
Subcutaneous Injection: The mice received a subcutaneous injection 1× daily. In summary, mice were grasped at the scruff of the neck and a suitable place was selected for the injection. The injection site was moved daily to ensure limited distress to the animal. […]

[5] = tested on: TPA-stimulated epidermal hyperplasia in mouse skin; conditions: cited from earlier work
[6] = tested on: mouse diabetic model; conditions: U.S. Pat. No. 8,431,555; cited from earlier work

## Vitamin E
[1]
  histologic improvement compared with placebo: significant histologic improvement compared with placebo

## CSc1ccc(C(=O)/C=C/c2cc(C)c(OC(C)(C)C(=O)O)c(C)c2)cc1 [GFT 505]
[2]; all patients
  improvement in histologically-assessed NASH vs. placebo: failed to produce a statistically significant improvement
[2]; patients with the mildest form of NASH (NAS<3) excluded
  improvement in histologically-assessed NASH vs. placebo: statistically significant improvement vs. placebo

## CC[C@H]1[C@@H](O)[C@@H]2[C@H](CC[C@]3(C)[C@@H]([C@H](C)CCC(=O)O)CC[C@@H]23)[C@@]2(C)CC[C@@H](O)C[C@@H]12 [obeticholic acid]
[3]
  insulin sensitivity: decrease in insulin sensitivity
  plasma LDL and total cholesterol: significant increase

## C[C@]12CCCCC1=CC[C@@H]1[C@@H]2CC[C@]2(C)C(=O)[C@H](F)C[C@@H]12 [fluasterone, 16α-fluoro-5-androsten-17-one]
[4]; both low dose 5 mg/kg (P 0.01) and high dose 20 mg/kg (P 0.0005) vs 24 weeks WDSW
  fasting blood ketones at necropsy: significantly lower
[4]; both low dose 5 mg/kg and high dose 20 mg/kg s.c., 8 weeks, vs 24 weeks WDSW, P 0.003 each (FIG. 3)
  fasting blood glucose: significantly improved
[4]; both treatment groups vs 24 week positive controls, high dose P<0.039, low dose P<0.008 (FIG. 17)
  SAF Activity score: improved the SAF scores
[4]; both treatment groups vs 24 week positive controls, high dose P<0.05, low dose P<0.001 (FIG. 18)
  NAS score: improved the NAS score
[4]; both treatment groups vs 24 weeks WDSW, high dose P<0.01, low dose P<0.032 (FIG. 14)
  lobular inflammation: significantly reduced inflammation
[4]; fluasterone-treated mice vs WDSW
  serum triglycerides: no significant difference
[4]; fluasterone-treated mice vs WDSW positive controls, low dose P=0.0504
  total serum cholesterol: lower total serum cholesterol
[4]; high dose 20 mg/kg s.c. 1x daily for 8 weeks (weeks 16-24 on WDSW), P=0.054
  liver weight vs WDSW positive control: smaller livers compared to the WDSW 24 wk control group
[4]; high dose 20 mg/kg vs 24 week positive controls, P=0.15
  fibrosis (NASH CRN): not statistically less fibrotic although there was a trend
[4]; high dose 20 mg/kg vs WDSW control, P=0.058
  alkaline phosphatase (ALP): strong trend to improvement
[4]; high dose 20 mg/kg, 24 week WDSW control 10/10, baseline (16 weeks) 5/10
  mice that progressed to NASH: 5/10
[4]; high dose 20 mg/kg
  mice progressed to measurable fibrosis by NASH CRN score: 2/10
[4]; high dose 20 mg/kg, P value of 0.052
  perisinusoidal fibrosis: almost statistically significant
[4]; low and high dose groups vs WDSW positive control, baseline (16 weeks) and end of study (24 weeks)
  fasting insulin (ELISA): not statistically significant between drug treated groups and WDSW positive control
[4]; low and high dose groups vs positive WDSW control, data not shown
  HOMA IR: comparable between the positive WDSW control and the drug treated groups
[4]; low and high dose groups vs positive controls
  steatosis grade: neither treatment group had improved steatosis grade
[4]; low dose 5 mg/kg and high dose 20 mg/kg s.c., 8 weeks, vs 24 week WDSW
  necropsy body weight: comparable to the 24 week positive WDSW controls
[4]; low dose 5 mg/kg s.c. 1x daily for 8 weeks (weeks 16-24 on WDSW), P=0.12
  liver weight vs WDSW positive control: smaller livers than the WDSW positive control group, however the difference was not statistically significant
[4]; low dose 5 mg/kg vs 24 week WDSW, P=0.10
  AST: statistically significant drop in AST
[4]; low dose 5 mg/kg vs 24 week positive control, P=0.026
  hepatocyte ballooning: statistically less ballooning
[4]; low dose 5 mg/kg vs 24 week positive controls, P=0.057
  fibrosis (NASH CRN): lower than the 24 week positive controls
[4]; low dose 5 mg/kg vs WDSW control, P=0.01
  alkaline phosphatase (ALP): significantly lower
[4]; low dose 5 mg/kg vs positive controls, P=0.032
  steatosis percentage: statistically significantly less steatosis percentage
[4]; low dose 5 mg/kg, 24 week WDSW control 10/10, baseline (16 weeks) 5/10
  mice that developed NASH: 7/10
[4]; low dose 5 mg/kg
  mice progressed to measurable fibrosis by NASH CRN score: 1/10
[4]; low dose 5 mg/kg, P=0.002
  perisinusoidal fibrosis: significantly less perisinusoidal fibrosis
[4]; treated mice vs 24 week positive control, P 0.11 (low dose) and 0.051 (high dose)
  ALT: strong trend towards improved ALT (lower ALT)
[5]; oral
  effective dose abolishing TPA-stimulated epidermal hyperplasia: at least 200 mg/kg
[5]; subcutaneous injection
  lowest effective dose abolishing TPA-stimulated epidermal hyperplasia: 2.5 mg/kg
[6]
  hyperglycemia: effective in reducing hyperglycemia
